According to publication PMC7316778 (Nature Communications, 2020):
Several values for one entry are separate records, joined by “and”; a condition that tells them apart may be missing. Identical values can stand only once. Like-named read-outs stand apart in the source and are kept apart here.

Assays:
[1] = target: CAMK1 (CaMK1) (Homo sapiens, UniProt Q14012); experiment: SelectScreen kinase assay; settings: 1 h, 1 μM WEL028, 1 h preincubation
Description: (§1) Selectivity profiling assays were performed by the Invitrogen SelectScreen™ Services. […] The concentration of ATP was selected to be equal to the KM, unless indicated otherwise.

[2] = target: CDK4/cyclin D1 (Homo sapiens, UniProt P11802); experiment: SelectScreen kinase assay; settings: for Inhibition at 1 µM (%): CDK4/cyclin D1, Adapta, ATP 10
Description: as §1

[3] = target: T1, ULK3 (Homo sapiens, UniProt Q6PHR2); experiment: SelectScreen kinase assay
T1 sequence (Q6PHR2 1-472): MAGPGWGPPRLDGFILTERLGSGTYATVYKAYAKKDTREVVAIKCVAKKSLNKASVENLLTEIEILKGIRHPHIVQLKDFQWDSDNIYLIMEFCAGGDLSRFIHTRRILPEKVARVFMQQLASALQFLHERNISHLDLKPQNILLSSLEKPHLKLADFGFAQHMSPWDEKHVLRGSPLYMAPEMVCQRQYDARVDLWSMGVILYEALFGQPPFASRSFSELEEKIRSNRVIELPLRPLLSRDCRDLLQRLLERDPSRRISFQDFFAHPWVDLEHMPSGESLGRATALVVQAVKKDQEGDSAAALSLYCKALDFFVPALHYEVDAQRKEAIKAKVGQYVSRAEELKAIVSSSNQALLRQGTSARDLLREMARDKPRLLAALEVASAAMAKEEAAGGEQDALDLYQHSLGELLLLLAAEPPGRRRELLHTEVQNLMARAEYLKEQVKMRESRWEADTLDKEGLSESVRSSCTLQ
Description: as §1

[4] = target: ERBB4 (HER4) (Homo sapiens, UniProt Q15303); experiment: SelectScreen kinase assay; settings: for Inhibition at 1 µM (%): ERBB4 (HER4), ZLYTE, ATP Km app
Description: as §1

[5] = target: NEK7 (Homo sapiens, UniProt Q8TDX7); experiment: SelectScreen kinase assay
Description: as §1

[6] = target: PRKCE (PKC epsilon) (Homo sapiens, UniProt Q02156); experiment: SelectScreen kinase assay
Description: as §1

[7] = target: SRPK2 (Homo sapiens, UniProt P78362); experiment: SelectScreen kinase assay; settings: 1 h, 1 μM WEL028, 1 h preincubation
Description: as §1

[8] = target: IGF1R (Homo sapiens, UniProt P08069); experiment: SelectScreen kinase assay
Description: as §1

[9] = target: EPHA1 (Homo sapiens, UniProt P21709); experiment: SelectScreen kinase assay
Description: as §1

[10] = target: CAMK4 (CaMKIV) (Homo sapiens, UniProt Q16566); experiment: SelectScreen kinase assay
Description: as §1

[11] = target: CDK1/cyclin B (Homo sapiens, UniProt P06493); experiment: SelectScreen kinase assay; settings: 1 h, 1 μM WEL028, 1 h preincubation
Description: as §1

[12] = target: T2, endogenous FES^S700C in HL-60 cells (Homo sapiens, UniProt P07332, S700C); experiment: Gel-based target engagement during PMA-induced macrophage differentiation; type: cell-based; settings: for Relative FES labeling (%): Figure 6b
T2 construct: endogenous in cells; host or cells: HL-60 FES^S700C clone, differentiated to macrophages or neutrophils
Description: Cells were pretreated with vehicle or WEL028 (100 or 1000 nM, 1 h) prior to induction of differentiation towards monocytes/macrophages with PMA (16 nM, 48 h). Medium was refreshed with growth medium containing WEL028 and PMA after 24 h to maintain full FES inhibition. […] Threshold for CD11b-positive cells was determined using isotype control antibody. […] Kinases with native cysteine at DFG-1 position are shown in bold. All data represent means ± SEM.

[13] = target: STK32B (YANK2) (Homo sapiens, UniProt Q9NY57); experiment: SelectScreen kinase assay
Description: as §1

[14] = target: MAPK14 (p38 alpha) (Homo sapiens, UniProt Q16539); experiment: SelectScreen kinase assay
Description: as §1

[15] = target: STK16 (PKL12) (Homo sapiens, UniProt O75716); experiment: SelectScreen kinase assay
Description: as §1

[16] = target: T3, GRK1 (Homo sapiens, UniProt Q15835); experiment: SelectScreen kinase assay
T3 sequence (Q15835 1-563): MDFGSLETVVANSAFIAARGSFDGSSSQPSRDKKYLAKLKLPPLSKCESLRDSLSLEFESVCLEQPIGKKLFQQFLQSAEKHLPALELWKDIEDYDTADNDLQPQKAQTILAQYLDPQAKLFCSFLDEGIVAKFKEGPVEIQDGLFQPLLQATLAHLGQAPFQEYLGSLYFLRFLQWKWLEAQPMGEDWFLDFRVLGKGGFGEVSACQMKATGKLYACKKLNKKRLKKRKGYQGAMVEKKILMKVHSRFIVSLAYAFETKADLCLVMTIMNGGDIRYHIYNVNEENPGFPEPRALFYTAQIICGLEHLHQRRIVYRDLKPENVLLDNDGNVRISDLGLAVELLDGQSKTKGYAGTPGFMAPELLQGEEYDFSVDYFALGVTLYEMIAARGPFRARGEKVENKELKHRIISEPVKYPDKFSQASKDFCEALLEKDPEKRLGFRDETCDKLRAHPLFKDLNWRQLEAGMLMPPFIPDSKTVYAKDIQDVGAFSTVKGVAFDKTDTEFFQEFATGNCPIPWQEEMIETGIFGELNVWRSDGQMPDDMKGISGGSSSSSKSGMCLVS
Description: as §1

[17] = 1 h, 1 μM WEL028, 1 h preincubation
[18] = 1 µM, LanthaScreen Binding, listed as WEL028, 1 µM
[19] = read-out: Inhibition at 1 µM (%), 1 µM, LanthaScreen Binding

Chain of MAPK14 (p38 alpha) (Q16539 whole entry): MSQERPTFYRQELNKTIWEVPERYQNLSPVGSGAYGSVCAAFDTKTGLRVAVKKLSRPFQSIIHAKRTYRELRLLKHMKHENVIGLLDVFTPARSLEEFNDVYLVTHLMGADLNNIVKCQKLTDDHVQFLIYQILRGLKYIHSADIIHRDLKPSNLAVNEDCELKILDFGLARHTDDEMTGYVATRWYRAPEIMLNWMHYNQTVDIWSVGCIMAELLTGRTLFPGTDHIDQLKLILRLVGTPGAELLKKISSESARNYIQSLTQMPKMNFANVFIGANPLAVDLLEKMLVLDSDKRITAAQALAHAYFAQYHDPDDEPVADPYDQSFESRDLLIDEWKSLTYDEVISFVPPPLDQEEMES
Chain of PRKCE (PKC epsilon) (Q02156 whole entry): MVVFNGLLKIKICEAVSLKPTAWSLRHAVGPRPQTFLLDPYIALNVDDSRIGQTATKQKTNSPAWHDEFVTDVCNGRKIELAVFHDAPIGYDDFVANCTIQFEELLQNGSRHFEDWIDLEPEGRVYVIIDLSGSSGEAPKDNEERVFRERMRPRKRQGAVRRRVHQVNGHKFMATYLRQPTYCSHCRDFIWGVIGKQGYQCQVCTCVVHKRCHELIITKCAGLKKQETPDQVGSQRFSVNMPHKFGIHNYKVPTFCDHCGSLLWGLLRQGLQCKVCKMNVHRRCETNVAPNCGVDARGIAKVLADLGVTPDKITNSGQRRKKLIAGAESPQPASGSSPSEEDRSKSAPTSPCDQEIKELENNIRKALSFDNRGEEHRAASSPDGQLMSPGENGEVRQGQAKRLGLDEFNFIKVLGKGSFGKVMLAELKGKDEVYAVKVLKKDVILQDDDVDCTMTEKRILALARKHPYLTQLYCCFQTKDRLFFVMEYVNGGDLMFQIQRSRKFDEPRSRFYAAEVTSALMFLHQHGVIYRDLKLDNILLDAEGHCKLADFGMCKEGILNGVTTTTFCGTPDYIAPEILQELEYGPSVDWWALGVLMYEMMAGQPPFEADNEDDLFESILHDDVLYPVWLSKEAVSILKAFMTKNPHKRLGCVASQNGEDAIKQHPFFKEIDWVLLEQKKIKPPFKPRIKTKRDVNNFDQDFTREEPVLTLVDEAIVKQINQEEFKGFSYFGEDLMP
Chain of STK16 (PKL12) (O75716 whole entry): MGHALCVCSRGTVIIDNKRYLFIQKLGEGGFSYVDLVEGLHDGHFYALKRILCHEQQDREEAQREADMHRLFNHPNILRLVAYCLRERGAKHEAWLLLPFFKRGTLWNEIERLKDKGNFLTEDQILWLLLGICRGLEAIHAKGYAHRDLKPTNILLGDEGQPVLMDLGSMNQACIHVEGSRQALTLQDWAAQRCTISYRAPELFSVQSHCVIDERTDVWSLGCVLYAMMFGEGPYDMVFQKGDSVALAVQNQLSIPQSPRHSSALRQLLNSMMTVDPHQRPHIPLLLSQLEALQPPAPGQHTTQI
Chain of STK32B (YANK2) (Q9NY57 whole entry): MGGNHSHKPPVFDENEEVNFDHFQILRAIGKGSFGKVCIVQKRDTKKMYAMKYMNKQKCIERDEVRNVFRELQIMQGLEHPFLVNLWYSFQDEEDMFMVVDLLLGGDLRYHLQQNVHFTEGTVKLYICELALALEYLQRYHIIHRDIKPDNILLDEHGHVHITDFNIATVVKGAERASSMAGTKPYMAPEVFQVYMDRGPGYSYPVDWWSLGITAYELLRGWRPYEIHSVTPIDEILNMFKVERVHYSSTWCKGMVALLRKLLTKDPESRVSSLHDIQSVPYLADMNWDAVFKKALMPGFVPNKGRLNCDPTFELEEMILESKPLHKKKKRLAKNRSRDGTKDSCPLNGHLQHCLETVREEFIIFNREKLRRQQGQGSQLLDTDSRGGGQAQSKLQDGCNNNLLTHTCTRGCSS
Chain of CDK4/cyclin D1 (P11802 whole entry): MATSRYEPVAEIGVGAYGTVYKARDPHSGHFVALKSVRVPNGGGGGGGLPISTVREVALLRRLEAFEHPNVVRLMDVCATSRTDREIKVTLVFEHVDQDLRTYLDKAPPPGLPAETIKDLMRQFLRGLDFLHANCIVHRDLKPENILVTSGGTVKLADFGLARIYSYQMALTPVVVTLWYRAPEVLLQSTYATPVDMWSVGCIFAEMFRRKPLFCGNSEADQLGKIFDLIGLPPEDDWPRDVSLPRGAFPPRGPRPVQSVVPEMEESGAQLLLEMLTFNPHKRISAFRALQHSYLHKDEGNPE
Chain of CDK4/cyclin D1 (P24385 whole entry partner): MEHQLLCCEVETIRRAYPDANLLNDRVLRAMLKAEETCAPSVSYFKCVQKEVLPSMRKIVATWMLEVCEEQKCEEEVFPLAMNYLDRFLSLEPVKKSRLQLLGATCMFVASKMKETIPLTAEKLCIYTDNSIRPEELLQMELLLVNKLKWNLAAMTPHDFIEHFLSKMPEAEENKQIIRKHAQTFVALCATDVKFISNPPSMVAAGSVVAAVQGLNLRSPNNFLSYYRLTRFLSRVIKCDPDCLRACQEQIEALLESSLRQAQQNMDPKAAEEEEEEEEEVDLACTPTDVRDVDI
Chain of ERBB4 (HER4) (Q15303 26-1308): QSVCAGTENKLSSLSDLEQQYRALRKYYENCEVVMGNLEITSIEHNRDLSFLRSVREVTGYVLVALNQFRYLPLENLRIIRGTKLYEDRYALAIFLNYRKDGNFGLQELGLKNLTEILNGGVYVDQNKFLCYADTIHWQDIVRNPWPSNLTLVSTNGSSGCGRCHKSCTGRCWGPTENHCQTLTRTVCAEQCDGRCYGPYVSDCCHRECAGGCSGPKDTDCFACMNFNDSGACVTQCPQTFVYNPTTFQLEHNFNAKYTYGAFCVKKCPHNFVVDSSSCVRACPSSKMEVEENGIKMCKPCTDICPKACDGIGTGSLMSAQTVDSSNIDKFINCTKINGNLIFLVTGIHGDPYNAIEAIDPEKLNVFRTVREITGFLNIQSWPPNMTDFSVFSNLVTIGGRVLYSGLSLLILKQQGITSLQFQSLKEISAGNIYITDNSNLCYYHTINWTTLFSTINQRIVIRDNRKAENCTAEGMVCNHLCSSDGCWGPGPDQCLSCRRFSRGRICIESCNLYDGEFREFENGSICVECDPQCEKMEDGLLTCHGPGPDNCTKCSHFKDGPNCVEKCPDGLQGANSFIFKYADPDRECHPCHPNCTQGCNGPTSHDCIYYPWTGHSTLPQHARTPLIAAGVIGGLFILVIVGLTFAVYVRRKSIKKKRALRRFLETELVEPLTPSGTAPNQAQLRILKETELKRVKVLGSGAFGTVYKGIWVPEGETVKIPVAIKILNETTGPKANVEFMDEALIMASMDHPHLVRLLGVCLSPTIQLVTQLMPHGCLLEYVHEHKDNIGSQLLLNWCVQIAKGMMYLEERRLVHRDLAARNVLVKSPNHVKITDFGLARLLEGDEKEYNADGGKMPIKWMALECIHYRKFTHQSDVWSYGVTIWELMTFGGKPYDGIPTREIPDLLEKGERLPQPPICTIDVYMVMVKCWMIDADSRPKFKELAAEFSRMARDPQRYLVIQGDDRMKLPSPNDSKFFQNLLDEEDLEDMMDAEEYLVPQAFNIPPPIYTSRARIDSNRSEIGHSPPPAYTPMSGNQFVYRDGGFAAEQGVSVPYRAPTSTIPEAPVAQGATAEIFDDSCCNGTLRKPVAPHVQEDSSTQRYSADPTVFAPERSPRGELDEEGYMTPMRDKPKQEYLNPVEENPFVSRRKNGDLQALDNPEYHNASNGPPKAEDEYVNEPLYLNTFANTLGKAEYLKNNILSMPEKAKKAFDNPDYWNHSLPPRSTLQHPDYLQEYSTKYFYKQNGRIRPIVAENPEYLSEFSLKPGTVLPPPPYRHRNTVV
T2 sequence (P07332 whole entry S700C): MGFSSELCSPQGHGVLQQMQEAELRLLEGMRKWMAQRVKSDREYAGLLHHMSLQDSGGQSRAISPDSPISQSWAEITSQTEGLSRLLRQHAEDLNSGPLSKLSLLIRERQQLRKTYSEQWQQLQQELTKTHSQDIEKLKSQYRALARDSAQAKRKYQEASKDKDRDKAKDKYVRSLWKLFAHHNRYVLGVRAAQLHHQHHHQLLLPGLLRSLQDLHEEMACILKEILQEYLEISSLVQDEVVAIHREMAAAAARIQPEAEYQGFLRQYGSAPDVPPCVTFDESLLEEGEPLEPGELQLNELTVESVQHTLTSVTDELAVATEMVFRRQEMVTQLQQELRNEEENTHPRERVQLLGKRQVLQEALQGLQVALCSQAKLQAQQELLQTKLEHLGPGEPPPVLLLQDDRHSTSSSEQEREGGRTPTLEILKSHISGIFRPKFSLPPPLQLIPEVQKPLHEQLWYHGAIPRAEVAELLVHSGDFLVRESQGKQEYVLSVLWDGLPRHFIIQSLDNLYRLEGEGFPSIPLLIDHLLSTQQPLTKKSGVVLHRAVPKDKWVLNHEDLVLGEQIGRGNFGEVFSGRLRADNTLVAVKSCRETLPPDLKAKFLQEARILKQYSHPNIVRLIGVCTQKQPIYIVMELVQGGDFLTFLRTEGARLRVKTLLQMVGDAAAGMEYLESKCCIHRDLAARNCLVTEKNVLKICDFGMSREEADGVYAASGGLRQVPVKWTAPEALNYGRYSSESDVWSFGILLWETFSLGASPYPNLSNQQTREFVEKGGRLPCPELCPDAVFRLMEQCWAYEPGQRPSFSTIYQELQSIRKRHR
Chain of NEK7 (Q8TDX7 whole entry): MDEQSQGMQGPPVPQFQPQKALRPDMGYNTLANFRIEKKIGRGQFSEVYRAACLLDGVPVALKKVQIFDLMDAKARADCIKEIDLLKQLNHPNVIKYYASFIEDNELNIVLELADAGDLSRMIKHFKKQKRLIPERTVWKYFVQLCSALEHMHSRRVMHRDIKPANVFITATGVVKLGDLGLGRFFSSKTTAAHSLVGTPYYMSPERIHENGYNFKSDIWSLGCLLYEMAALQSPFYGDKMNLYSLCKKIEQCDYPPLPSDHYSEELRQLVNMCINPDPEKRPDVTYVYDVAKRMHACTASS

For C#CCOc1ccc(Nc2ncc(Cl)c(Nc3ccccc3NC(=O)C=C)n2)c(OC)c1 [Compound 6], the inhibition at 1 µM [1] was 6%, the inhibition at 1 µM [2, 17] was -10% and the “Inhibition at 1 µM (%)” value [2] was -14%. For the same compound, the “Inhibition at 1 µM (%)” value ([2]; listed as WEL028, 1 µM) was -6%, the “Inhibition (%)” value ([3]; 1 μM WEL028, 1 h preincubation) was 26% and the “Inhibition at 1 µM (%)” value [3, 18] was 27%. The inhibition at 1 µM [3, 19] was 25%, the inhibition at 1 µM [4, 17] was 8% and the “Inhibition at 1 µM (%)” value [4] was 11%. For the same compound, the “Inhibition at 1 µM (%)” value ([4]; listed as WEL028, 1 µM) was 5%, the inhibition at 1 µM [5, 17] was -3% and the “Inhibition at 1 µM (%)” value ([5]; NEK7, 1 µM, ZLYTE, ATP Km app, listed as WEL028, 1 µM) was -2%. The inhibition at 1 µM [6, 17] was -13%, the “Inhibition at 1 µM (%)” value ([6]; PRKCE (PKC epsilon), 1 µM, ZLYTE, ATP Km app, listed as WEL028, 1 µM) was -15% and -11% and the inhibition at 1 µM [7] was -1%. For the same compound, the inhibition at 1 µM [8, 17] was 15%, the inhibition at 1 µM ([8]; read-out: Inhibition at 1 µM (%), IGF1R, 1 µM, ZLYTE, ATP Km app) was 14% and the inhibition at 1 µM ([9]; 1 h) was 5%. The inhibition at 1 µM ([9]; read-out: Inhibition at 1 µM (%)) was 5%, the inhibition at 1 µM [10, 17] was -5% and the “Inhibition at 1 µM (%)” value ([10]; CAMK4 (CaMKIV), 1 µM, ZLYTE, ATP Km app) was -15%. The inhibition at 1 µM [11] was 1%, the “Target engagement of engineered FES” value ([12]; 100 nM WEL028 during PMA-induced differentiation) was “full target engagement” and the “Relative FES labeling (%)” value ([12]; WEL028 100 nM) was 6.297% and 1.811% and 0.4549%. The “Relative FES labeling (%)” value ([12]; WEL028 1 µM) was -1.423% and -3.177% and -0.4317%, the “Inhibition at 1 µM (%)” value [13, 18] was 6% and the inhibition at 1 µM [13, 17] was 7%. The inhibition at 1 µM [13, 19] was 7%, the “Inhibition (%)” value ([14]; 1 μM WEL028, 1 h preincubation) was 7% and the “Inhibition at 1 µM (%)” value ([14]; MAPK14 (p38 alpha) Direct, 1 µM, ZLYTE, ATP Km app, listed as WEL028, 1 µM) was 4% and 10%. For the same compound, the “Inhibition at 1 µM (%)” value [15, 18] was 29%, the inhibition at 1 µM [15, 17] was 32% and the inhibition at 1 µM [15, 19] was 35%. For the same compound, the inhibition at 1 µM [16, 17] was 8%, the “Inhibition at 1 µM (%)” value ([16]; GRK1, 1 µM, LanthaScreen Binding, listed as WEL028, 1 µM) was 7% and the inhibition at 1 µM ([16]; read-out: Inhibition at 1 µM (%), GRK1, 1 µM, LanthaScreen Binding) was 9%.
